We go through 1 compound from PMC9606187, “Dual HDAC/BRD4 Inhibitors Relieves Neuropathic Pain by Attenuating Inflammatory Response in Microglia After Spared Nerve Injury” (Neurotherapeutics, 2022).

The test system of one data set is IL-1ß. The data set is described as follows: Western blot of lumbar spinal cord, IL-1ß. The format is in vivo, mice. The conditions noted are these: SNI ipsilateral side, day 7 and 14. As to the method: The lumbar spinal cord was removed 7 and 14 days after surgery and 90 min after the intranasal administration of SUM52, corresponding to the peack of the effect. Samples (n = 4 for groups) were homogenized in a homogenization buffer and processed as previously described. Protein samples (40 µg of protein/sample) were separated on 10% SDS-PAGE and transferred onto nitrocellulose membranes (120 min at 100 V) using standard procedures. Membranes were blocked in PBST (PBS containing 0.1% Tween) containing 5% nonfat dry milk for 120 min. […] Blots were then extensively washed and developed using enhanced chemiluminescence detection system (Pierce, Milan, Italy) and signal intensity (pixels/mm^2) quantified (ImageJ, NIH). […] For each sample, the signal intensity was normalized to that of total protein stained by Ponceau S and the acquired images were quantified using Image Lab software. […]
(In western blotting, separated proteins are transferred to a membrane and probed.)

Data set [1] in a line: Intrinsic fluorescence of the compound in spinal cord after i.n. delivery. Type of data set: in vivo, mice. The source says: On postsurgical day 14, animals were perfused transcardially with 4% paraformaldehyde in 0.1 M phosphate buffer (PBS, pH 7.4). After perfusion, lumbar spinal cord was quickly removed and processed as previously described. Four animals per groups were used for this analysis. […] Primary antibody used was IBA1 (1:100; Santa Cruz Biotechnology Cat# sc-32725, RRID:AB_667733). […] A Leica DM6000B fluorescence microscope equipped with a DFC350FX digital camera with appropriate excitation and emission filters for each fluorophore was used to acquire representative images. […] The immunofluorescence intensity was calculated by ImageJ (Wayne Rasband, National Institute of Health, USA).
Co-localization of two different labels was measured using EzColocalization plugin (ImageJ). The extent of co-localization was determined by calculating the Mander’s overlap coefficient (MOC) and the Pearson’s correlation coefficient (PCC). […] PCC quantify the correlation between individual fluorophores considering their intensities. PCC is characterized by determined value range: −1, which indicate anticolocalization; +1, which indicates colocalization; 0, which indicates there is no colocalization.

For a further data set, the system named is naïve mice. The data set is described as follows: Hot plate test, acute thermal pain in naïve mice. Type of data set: in vivo. The text has this:
Mice were randomly assigned to each treatment group. To evaluate the pharmacological profile of SUM35 (N-hydroxy-6-(1-methyl-6-phenyl-4H-benzo[f][1,2,4]triazolo[4,3-a][1,4]diazepin-8-yl)hex-5-ynamide), SUM52 ((S)-N-hydroxy-7-(2-(1-methyl-6-phenyl-4H-benzo[f][1,2,4]triazolo[4,3-a][1,4]diazepin-4-yl)acetamido)heptanamide) (Fig. 1F), synthesized in the laboratory of Prof. Maria Novella Romanelli, iBET762 (molibresib; (4S)-6-(4-Chlorophenyl)-N-ethyl-8-methoxy-1-methyl-4H-[1,2,4]triazolo[4,3,a][1,4] benzodiazepine-4-acetamide, and SAHA (vorinostat; suberoylanilide hydroxamic acid) (Sigma-Aldrich, Italy) were administered 15 min before the tests. Drugs were dissolved in 5% DMSO. Drug concentrations were prepared in such a way that the necessary dose could be administered in a volume of 10 µl per mouse by intranasal (i.n.) administration. The experimental protocol to test the effect of treatments on behavioral and in vitro tests included 3 control groups: untreated, vehicle (5% DMSO), and saline. A representative figure of the experimental protocol in naïve (C) and SNI (F) mice has been inserted in Supplementary Fig. 1.
For i.n. administration, mice were slightly anesthetized by 2% isoflurane inhalation and placed in a supine position. A 5 μl aliquot of solution (treatments or vehicle) was slowly dropped alternatively to each nostril with a micropipette tip.
Animals were habituated to the testing environment daily for at least 2 days before baseline testing. To evaluate onset and progression of pain hypersensitivity, neuropathic mice were monitored by measuring nociceptive responses every 30 min for 3 h before surgery or 3, 7, 10, and 14 days after nerve surgery. Experiments were performed on post-surgery day 7 and 14 when the pain hypersensitivity was well established. Each mouse served as its own control, the responses being measured both before and after surgery. All testing was performed with a blind procedure.
For orientation: In hot-plate and tail-flick tests a longer latency is read as antinociception.

The subject of data set [2] is SNI mice. As to the kind of experiment: Hargreaves' plantar test, thermal allodynia in SNI mice. Type of data set: in vivo.
Method: For i.n. administration, mice were slightly anesthetized by 2% isoflurane inhalation and placed in a supine position [30]. A 5 μl aliquot of solution (treatments or vehicle) was slowly dropped alternatively to each nostril with a micropipette tip.
Behavioral testing was performed before surgery to establish a baseline for comparison with post-surgical values.
Thermal nociceptive threshold was measured using Hargreaves’ device, as described [33]. Nociceptive response for thermal sensitivity was expressed as thermal paw withdrawal latency in seconds. All determinations were averaged for each animal.
The test system of data set [3] is SNI mice. As to the kind of experiment: Observation of sedation or motor dysfunction. Type of data set: in vivo. The settings on record: single administration 50 µM i.n.
Data set [4] relates to SNI mice. The data set is described as follows: Hole-board test. Type of data set: in vivo. The conditions noted are these: 50 µM i.n., vs vehicle-treated SNI mice. As to the method: The spontaneous locomotor behavior was evaluated by using the hole-board test. Movements of the animal on the plane represent the spontaneous mobility, and the head-dips in the holes by the mice represent the exploratory activity.

In the case of `Cc1nnc2n1-c1ccccc1C(c1ccccc1)=N[C@H]2CC(=O)NCCCCCCC(=O)NO` [SUM52, (S)-N-hydroxy-7-(2-(1-methyl-6-phenyl-4H-benzo[f][1,2,4]triazolo[4,3-a][1,4]diazepin-4-yl)acetamido)heptanamide], the IL-1ß expression result in the data set on IL-1ß is given as “drastically reduced”. Moreover, the “distribution to spinal cord (intrinsic fluorescence)” value in data set [1] (after i.n. delivery, vs vehicle-treated mice) is “able to reach the spinal cord and diffuse into the tissue”. Further, the “intrinsic fluorescence in microglial cells” value in data set [1] (spinal cord sections of SNI mice, IBA1 co-staining) is listed as “detected in IBA1 positive microglial cells”. Further, the “thermal antinociceptive effect (hot plate)” value in the data set on naïve mice (5 µM i.n., 90 min after administration) is reported as “ineffective”; in the data set on naïve mice (50 µM i.n., 90 min after administration), “trend toward an increase in the pain threshold”; in the data set with naïve mice (100 µM i.n., normalized to control, compared to SUM35 100 µM), “significant analgesic effect”; in the data set with naïve mice (doses higher than 100 µM (up to 500 µM) i.n.), “progressive reduction of efficacy”. Besides, the “time at which the antinociceptive effect disappeared (hot plate)” value in the data set on naïve mice (100 µM i.n.) was determined as 120 min. Also, the “time of peak of antinociceptive activity (hot plate)” value with naïve mice (100 µM i.n.) is given as 90 min. For the same compound, the “thermal antinociceptive effect (hot plate), whole dose range” value in the data set on naïve mice (5 to 500 µM i.n.) is “showed thermal antinociceptive effects”. The “thermal antiallodynic activity, ipsilateral side” value is reported as “ineffective” in the data set on SNI mice [2] (10 µM i.n., 90 min); “attenuated the SNI-induced pain hypersensitivity” with SNI mice [2] (50 µM i.n., vs before treatment values); “attenuated the SNI-induced pain hypersensitivity” in the data set on SNI mice [2] (75 µM i.n., vs before treatment values); “the effect was significantly reduced” in the data set on SNI mice [2] (100 µM i.n.). Besides, in the data set on SNI mice [2] (SUM52 50 µM vs SUM35 100 µM), the “duration of effect on thermal allodynia compared with SUM35” value is reported as “more prolonged affect”. Further, the “efficacy in attenuating thermal allodynia compared with SUM35” value in the data set on SNI mice [2] (SUM52 50 µM vs SUM35 100 µM, normalized to control group, day 7 and 14) is “comparable efficacy”. The “thermal analgesic effect in the contralateral side” value with SNI mice [2] (contralateral (uninjured) side of SNI mice) is recorded as “absence”. Further, the “thermal antiallodynic efficacy compared with SAHA + iBET762 combination” value in the data set with SNI mice [2] (time-course comparison, combination i-BET762 10 µg, SAHA 3 µg) is “comparable efficacy”. Also, the “apparent sedation or motor dysfunction” value with SNI mice [3] is reported as “No animal showed apparent sedation or motor dysfunction”. Also, the “exploratory activity (hole board test)” value with SNI mice [4] is on record as “no alteration”. Besides, the “spontaneous mobility (hole board test)” value with SNI mice [4] was “no alteration”.
